Where two headings read alike, the source gives them in different places. Residues, ends and D or L forms follow the SMILES beside them. *: point of attachment. NH(β-D-Glc) = OC[C@H]1O[C@@H](N*)[C@H](O)[C@@H](O)[C@@H]1O

The source of these data is article PMC7408607, “A Multiple N-Glucosylated Peptide Epitope Efficiently Detecting Antibodies in Multiple Sclerosis” (Brain Sciences, 2020).

For the assay, the system named is anti-CSF114(Glc) IgG antibodies from MS patients' serum. Nature of the assay: Competitive (inhibition) ELISA on plates coated with CSF114(Glc). In kind it is binding, human. Particulars: for Log1/IC50 ± Std Error: Table S4, shortened peptides versus CSF114(Glc), one representative positive MS serum. As to the method:
Washing steps were executed with an automatic Hydroflex microplate washer (Tecan Italia, Milano, Italy). After five washes with washing buffer containing 0.9% NaCl and 0.05% Tween 20, nonspecific binding sites were blocked with 100 μL per well fetal calf serum (FCS) buffer solution (10% in washing buffer) at room temperature for 60 min.
Antibody affinity was measured following the inhibition methods reported elsewhere. Semi-saturating sera dilution was calculated in preliminary titration curves (absorbance 0.7). Six different concentrations of each synthetic antigenic peptide probe were used as inhibitors. Then, sera samples at the selected dilution were incubated in parallel with increasing concentrations of the synthetic shortened peptide sequences (range 1 × 10^−10 to 1 × 10^−4) for 60 min at room temperature. All inhibition experiments were performed in duplicate or triplicate for each single MS patient’s serum positive to CSF114(Glc) separately. All experiments were repeated at least twice on two different working days.
After three washes, uninhibited antibodies were identified by adding 100 µL/well of alkaline phosphatase-conjugated anti-human immunoglobulin G (IgG, Sigma-Aldrich, Milano, Italy) diluted 1:8000 in washing buffer containing 10% FCS. The microplates were then incubated 3 h at room temperature and, after three washes, 100 µL of substrate solution consisting of 1 mg/mL p-nitrophenyl phosphate (Sigma-Aldrich, Milano, Italy) in 10% diethanolamine buffer (pH 9.8) were added. After approximately 30 min, the reaction was stopped with 1M NaOH solution (50 µL/well), and the absorbance was read in a multichannel ELISA reader (Tecan Sunrise, Männedorf, Switzerland) at 405 nm. The selected ELISA microplates, coating conditions, reagent dilutions, buffers, and incubation times were previously tested. The relationship between peptide concentrations and the absorbance values was represented graphically in absorbance inhibition percentage, and half-maximal response concentration values (IC50) were calculated.
A general note: An ELISA detects its analyte on a solid surface through an enzyme-linked reagent.

[1] abbreviates: Table S5, tri- and pentapeptides 9-22 and CSF114(Glc), representative MS serum (Figure 3).
Where [2] appears, read: Table S5, tri- and pentapeptides 9-22 and CSF114(Glc), representative MS serum (Figure 3), CI 95% in brackets, read-out: IC50(M)[CI95%].
Setting [3] is: serum MS1 (Figure S2A), one of three MS positive sera tested in parallel, read-out: IC50.
Setting [4] is: serum MS3 (Figure S2C), read-out: IC50.
Where [5] appears, read: shortened CSF114(Glc) series (Figure 2, Table S4), one representative positive MS patient's serum, inhibitor 1 × 10^−10 to 1 × 10^−4, absorbance 405 nm, non-linear regression least squares fit, read-out: IC50.

For orientation: IC50 means the midpoint of a concentration-inhibition curve. Consider `CC(=O)N[C@@H](CC(=O)N[C@@H]1O[C@H](CO)[C@@H](O)[C@H](O)[C@H]1O)C(=O)NCC(=O)N[C@@H](Cc1c[nH]cn1)C(N)=O` [Ac-N(Glc)GH-NH2(13), Ac-N(Glc)GH-NH2], for which the “Log1/IC50 ± StdError” value under setting [1] came out at 5.226 ± 0.0433. In addition, the IC50 under setting [2] came to 6.94e-06 M. With `CC(=O)N[C@H](C(=O)N[C@@H](CCC(=O)O)C(=O)N[C@@H](CCCNC(=N)N)C(=O)N[C@@H](CC(=O)N[C@@H]1O[C@H](CO)[C@@H](O)[C@H](O)[C@H]1O)C(=O)NCC(=O)N[C@@H](Cc1c[nH]cn1)C(=O)N[C@@H](CO)C(=O)N[C@H](C(N)=O)C(C)C)C(C)C` [[Asn7(Glc)]CSF114(4‒11) (6), [Asn^7(Glc)] CSF114(4–11)] (Ac-VERD(NH(β-D-Glc))GHSV-NH2), the “Log1/IC50 ± Std Error” value amounted to 6.2 ± 0.29. As for `CC(=O)N[C@@H](CCC(=O)O)C(=O)N[C@@H](CCCNC(=N)N)C(=O)N[C@@H](CC(=O)N[C@@H]1O[C@H](CO)[C@@H](O)[C@H](O)[C@H]1O)C(=O)NCC(=O)N[C@@H](CO)C(N)=O` [Ac-ERN(Glc)GS-NH2(16), Ac-ERN(Glc)GS-NH2] (Ac-ERD(NH(β-D-Glc))GS-NH2), the “Log1/IC50 ± StdError” value under setting [1] came out at 5.677 ± 0.1444. Same read-out and setting: next, `CC(=O)N[C@@H](CC(=O)N[C@@H]1O[C@H](CO)[C@@H](O)[C@H](O)[C@H]1O)C(=O)N[C@@H](CCCCN)C(=O)N[C@@H](CO)C(N)=O` [Ac-N(Glc)KS-NH2(11), Ac-N(Glc)KS-NH2]: 5.942 ± 0.1911. With `CC(=O)N[C@@H](CCC(=O)O)C(=O)N[C@@H](CCCNC(=N)N)C(=O)N[C@@H](CC(=O)N[C@@H]1O[C@H](CO)[C@@H](O)[C@H](O)[C@H]1O)C(=O)NCC(=O)N[C@H](C(N)=O)[C@@H](C)O` [Ac-ERN(Glc)GT-NH2(17), Ac-ERN(Glc)GT-NH2] (Ac-ERD(NH(β-D-Glc))GT-NH2), the “Log1/IC50 ± StdError” value under setting [1] is 6.23 ± 0.14. Regarding `CSCC[C@H](NC(=O)[C@H](Cc1c[nH]c2ccccc12)NC(=O)CNC(=O)[C@H](Cc1ccc(O)cc1)NC(=O)[C@@H]1CCCN1C(=O)[C@H](C)NC(=O)[C@H](CC(C)C)NC(=O)[C@H](Cc1ccccc1)NC(=O)[C@@H](NC(=O)[C@H](CO)NC(=O)[C@H](Cc1c[nH]cn1)NC(=O)CNC(=O)[C@H](CC(=O)N[C@@H]1O[C@H](CO)[C@@H](O)[C@H](O)[C@H]1O)NC(=O)[C@H](CCCNC(=N)N)NC(=O)[C@H](CCC(=O)O)NC(=O)[C@@H](NC(=O)[C@H](CCCNC(=N)N)NC(=O)[C@@H]1CCCN1C(=O)[C@@H](N)[C@@H](C)O)C(C)C)C(C)C)C(=O)N[C@H](C(=O)N[C@@H](CCCCN)C(=O)O)C(C)C` [CSF114(Glc) (1), CSF114(Glc), reference compound], the “Log1/IC50 ± Std Error” value stood at 6.14 ± 0.083. Moreover, the “Log1/IC50 ± StdError” value under setting [1] was found to be 6.46 ± 0.083. The IC50 under setting [3] worked out at 5.2e-07 M. Also, under setting [4], the IC50 was determined as 5.12e-09 M. Besides, the IC50 under setting [5] amounted to 9e-09 M. Consider `CC(=O)N[C@@H](CCC(=O)O)C(=O)N[C@@H](CCCNC(=N)N)C(=O)N[C@@H](CC(=O)N[C@@H]1O[C@H](CO)[C@@H](O)[C@H](O)[C@H]1O)C(=O)N[C@@H](CCCCN)C(=O)N[C@@H](Cc1c[nH]cn1)C(N)=O` [Ac-ERN(Glc)KH-NH2(21), Ac-ERN(Glc)KH-NH2] (Ac-ERD(NH(β-D-Glc))KH-NH2), for which the “Log1/IC50 ± StdError” value under setting [1] was 5.98 ± 0.1482.

As for `CC(=O)N[C@@H](CCC(=O)O)C(=O)N[C@@H](CCCNC(=N)N)C(=O)N[C@@H](CC(=O)N[C@@H]1O[C@H](CO)[C@@H](O)[C@H](O)[C@H]1O)C(=O)N[C@@H](CCCCN)C(=O)N[C@@H](CO)C(N)=O` [Ac-ERN(Glc)KS-NH2(18), Ac-ERN(Glc)KS-NH2] (Ac-ERD(NH(β-D-Glc))KS-NH2), the “Log1/IC50 ± StdError” value under setting [1] was found to be 5.59 ± 0.19. As for `CC(=O)N[C@@H](CCC(=O)O)C(=O)N[C@@H](CCCNC(=N)N)C(=O)N[C@@H](CC(=O)N[C@@H]1O[C@H](CO)[C@@H](O)[C@H](O)[C@H]1O)C(=O)NCC(=O)N[C@@H](Cc1c[nH]cn1)C(=O)N[C@@H](CO)C(N)=O` [[Asn7(Glc)]CSF114(5‒10) (7), [Asn^7(Glc)] CSF114(5–10)] (Ac-ERD(NH(β-D-Glc))GHS-NH2), the “Log1/IC50 ± Std Error” value turned out to be 5.4 ± 0.10. In addition, the IC50 under setting [5] worked out at 3.5e-06 M.

Regarding `CC(=O)N[C@@H](CCCNC(=N)N)C(=O)N[C@@H](CC(=O)N[C@@H]1O[C@H](CO)[C@@H](O)[C@H](O)[C@H]1O)C(=O)NCC(=O)N[C@@H](Cc1c[nH]cn1)C(N)=O` [[Asn7(Glc)]CSF114(6‒9) (8), [Asn^7(Glc)] CSF114(6–9)] (Ac-RD(NH(β-D-Glc))GH-NH2), the “Log1/IC50 ± Std Error” value worked out at 5.7 ± 0.25. On to `CC(=O)N[C@@H](CC(=O)N[C@@H]1O[C@H](CO)[C@@H](O)[C@H](O)[C@H]1O)C(=O)N[C@@H](CCCCN)C(=O)N[C@H](C(N)=O)[C@@H](C)O` [Ac-N(Glc)KT-NH2(12), Ac-N(Glc)KT-NH2], for which, under setting [1], the “Log1/IC50 ± StdError” value turned out to be 6.010 ± 0.06024.

Take `CC(=O)N[C@@H](CC(=O)N[C@@H]1O[C@H](CO)[C@@H](O)[C@H](O)[C@H]1O)C(=O)NCC(=O)N[C@@H](CO)C(N)=O` [Ac-N(Glc)GS-NH2(9), Ac-N(Glc)GS-NH2]: the “Log1/IC50 ± StdError” value under setting [1] was 5.137 ± 0.063.

Consider `CC(=O)N[C@@H](CC(=O)N[C@@H]1O[C@H](CO)[C@@H](O)[C@H](O)[C@H]1O)C(=O)N[C@@H](CCCCN)C(=O)N[C@@H](Cc1c[nH]cn1)C(N)=O` [Ac-N(Glc)KH-NH2(14), Ac-N(Glc)KH-NH2], for which the “Log1/IC50 ± StdError” value under setting [1] is on record as 5.160 ± 0.01636.

Regarding `CC(=O)N[C@@H](CC(=O)N[C@@H]1O[C@H](CO)[C@@H](O)[C@H](O)[C@H]1O)C(=O)NCC(=O)N[C@H](C(N)=O)[C@@H](C)O` [Ac-N(Glc)GT-NH2(10), Ac-N(Glc)GT-NH2], the “Log1/IC50 ± StdError” value under setting [1] is 5.129 ± 0.1170. Regarding `CC(=O)N[C@@H](CC(=O)N[C@@H]1O[C@H](CO)[C@@H](O)[C@H](O)[C@H]1O)C(=O)N[C@@H](C)C(=O)N[C@H](C(N)=O)[C@@H](C)O` [Ac-N(Glc)AT-NH2(15), Ac-N(Glc)AT-NH2], the “Log1/IC50 ± StdError” value under setting [1] was 5.005 ± 0.05558. Further, the IC50 under setting [2] worked out at 7e-06 M. In the case of `CC(=O)N[C@@H](CCCCN)C(=O)NCC(=O)N[C@@H](CC(=O)N[C@@H]1O[C@H](CO)[C@@H](O)[C@H](O)[C@H]1O)C(=O)N[C@@H](C)C(=O)N[C@H](C(N)=O)[C@@H](C)O` [Ac-KGN(Glc)AT-NH2(22), Ac-KGN(Glc)AT-NH2] (Ac-KGD(NH(β-D-Glc))AT-NH2), the “Log1/IC50 ± StdError” value under setting [1] came to 6.22 ± 0.07. The same measure, in the same setting: under `CC(=O)N[C@@H](CCC(=O)O)C(=O)N[C@@H](CCCNC(=N)N)C(=O)N[C@@H](CC(=O)N[C@@H]1O[C@H](CO)[C@@H](O)[C@H](O)[C@H]1O)C(=O)NCC(=O)N[C@@H](Cc1c[nH]cn1)C(N)=O` [Ac-ERN(Glc)GH-NH2(20), Ac-ERN(Glc)GH-NH2] (Ac-ERD(NH(β-D-Glc))GH-NH2) stands 5.95 ± 0.112. In the case of `CC(=O)N[C@@H](CC(=O)N[C@@H]1O[C@H](CO)[C@@H](O)[C@H](O)[C@H]1O)C(=O)NCCCOCCOCCOCCCNC(=O)CCC(=O)NCCCC[C@H](NC(=O)CCC(=O)NCCCOCCOCCOCCCNC(=O)[C@H](CC(=O)N[C@@H]1O[C@H](CO)[C@@H](O)[C@H](O)[C@H]1O)NC(C)=O)C(=O)NCCCC[C@H](NC(=O)[C@H](CCCCNC(=O)CCC(=O)NCCCOCCOCCOCCCNC(=O)[C@H](CC(=O)N[C@@H]1O[C@H](CO)[C@@H](O)[C@H](O)[C@H]1O)NC(C)=O)NC(=O)CCC(=O)NCCCOCCOCCOCCCNC(=O)[C@H](CC(=O)N[C@@H]1O[C@H](CO)[C@@H](O)[C@H](O)[C@H]1O)NC(C)=O)C(=O)NCCC(=O)O` [N-Glc MEP (24)], the half-maximal inhibitory concentration (IC50) came out at 2.15e-08 M under setting [3] and 2.15e-08 M under setting [4].
